Entries after “also recorded” stand apart in the source; their conditions may differ.
Assays:
human D1 [1] = target: T1, human D1 (Homo sapiens, UniProt P21728); assay: BRET β-arrestin2 recruitment assay; conditions: D1R BRET assay
human D1 [2] = target: T1, human D1; assay: D1R GS-mediated GS-cAMP accumulation assay

T1 sequence (P21728 whole entry): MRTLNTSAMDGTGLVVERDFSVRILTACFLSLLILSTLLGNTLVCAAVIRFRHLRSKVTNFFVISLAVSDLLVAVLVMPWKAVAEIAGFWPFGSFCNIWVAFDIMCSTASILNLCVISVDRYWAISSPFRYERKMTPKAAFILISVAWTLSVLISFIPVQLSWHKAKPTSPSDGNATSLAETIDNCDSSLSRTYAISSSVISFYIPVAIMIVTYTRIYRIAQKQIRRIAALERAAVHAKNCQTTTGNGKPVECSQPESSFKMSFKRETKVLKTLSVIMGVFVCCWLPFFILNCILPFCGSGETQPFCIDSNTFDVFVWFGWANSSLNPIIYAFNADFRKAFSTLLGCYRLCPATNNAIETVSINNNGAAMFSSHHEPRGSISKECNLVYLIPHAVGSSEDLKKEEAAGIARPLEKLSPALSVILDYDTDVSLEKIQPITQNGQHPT

Compound	β-arrestin2 recruitment activity in words (human D1 [1])	further results
Cc1cc(-c2c(C)ncc3nccn23)ccc1Oc1nccc2occc12 [Compound 14, 4-(2-Methyl-4-(6-methylimidazo[1,2-a]pyrazin-5-yl)phenoxy)-furo[3,2-c]pyridine]	completely eliminated β-arrestin2 recruitment activity	
FC(F)(F)c1cc(Oc2nccc3ccccc23)ccc1-c1cccc2nccn12 [Compound 45, 1-(4-(Imidazo[1,2-a]pyridin-5-yl)-3-(trifluoromethyl)phenoxy)-isoquinoline]	β-arrestin2 recruitment still eliminated	
Fc1cc(-c2cccc3nccn23)cc(F)c1Oc1nccc2occc12 [Compound 43, 4-(2,6-Difluoro-4-(imidazo[1,2-a]pyridin-5-yl)phenoxy)furo[3,2-c]pyridine]	minimal β-arrestin2 recruitment	
Cc1cc(Oc2nccc3[nH]ncc23)ccc1-c1c(C)ncc2nccn12 [Compound 32, 4-(3-Methyl-4-(6-methylimidazo[1,2-a]pyrazin-5-yl)phenoxy)-1H-pyrazolo[4,3-c]pyridine]	not recovered	
Cc1cc(Oc2cccc3occc23)ccc1-c1c(C)ncc2nccn12 [Compound 27, 5-(4-(Benzofuran-4-yloxy)-2-methylphenyl)-6-methylimidazo-[1,2-a]pyrazine]	inactivity for β-arrestin2 recruitment	
Cc1cc(Oc2nccc3occ(C4CC4)c23)ccc1-c1c(C)ncc2nccn12 [Compound 26, 3-Cyclopropyl-4-(3-methyl-4-(6-methylimidazo[1,2-a]pyrazin-5-yl)phenoxy)furo[3,2-c]pyridine]	diminished β-arrestin2 recruitment activity	
Cc1ncc2nccn2c1-c1ccc(Oc2nccc3occc23)cc1C(F)(F)F [Compound 17, 4-(4-(6-Methylimidazo[1,2-a]pyrazin-5-yl)-3-(trifluoromethyl)-phenoxy)furo[3,2-c]pyridine]	potent full agonist of both signaling pathways	GS-cAMP accumulation activity in words (human D1 [2]; D1R GloSensor assay): potent full agonist of both signaling pathways
Cc1cc(Nc2nccc3occc23)ccc1-c1c(C)ncc2nccn12 [Compound 20, N-(3-Methyl-4-(6-methylimidazo[1,2-a]pyrazin-5-yl)phenyl)furo-[3,2-c]pyridin-4-amine]	only minimally active in the β-arrestin2 recruitment assay	
FC(F)(F)c1cc(Oc2nccc3ccsc23)ccc1-c1cccc2nccn12 [Compound 46, 7-(4-(Imidazo[1,2-a]pyridin-5-yl)-3-(trifluoromethyl)phenoxy)-thieno[2,3-c]pyridine]	minimal β-arr2 recruitment; also recorded: greatly weakened	
FC(F)(F)c1cc(Oc2nccc3occ(C4CC4)c23)ccc1-c1cccc2nccn12 [Compound 44, 3-Cyclopropyl-4-(4-(imidazo[1,2-a]pyridin-5-yl)-3-(trifluoromethyl)phenoxy)furo[3,2-c]pyridine]	abolished β-arrestin2 recruitment	
Cc1cc(Oc2nccc3occc23)ccc1-c1ccc(C#N)cn1 [Compound 13, 6-(4-(Furo[3,2-c]pyridin-4-yloxy)-2-methylphenyl)nicotinonitrile]	inactive in the β-arrestin2 recruitment assay	
COc1ccc(-c2ccc(Oc3nccc4occc34)cc2C)c(C)n1 [Compound 11, 4-(4-(6-Methoxy-2-methylpyridin-3-yl)-3-methylphenoxy)furo-[3,2-c]pyridine]	inactive in the β-arrestin2 recruitment assay	
FC(F)(F)c1cc(Oc2ccccn2)ccc1-c1cccc2nccn12 [Compound 49, 5-(4-(Pyridin-2-yloxy)-2-(trifluoromethyl)phenyl)imidazo[1,2-a]-pyridine]	no activity in the β-arrestin2 pathway	
Cc1cc(Oc2nccn3ccnc23)ccc1-c1c(C)ncc2nccn12 [Compound 31, 5-(4-(Imidazo[1,2-a]pyrazin-8-yloxy)-2-methylphenyl)-6-methylimidazo[1,2-a]pyrazine]	β-arrestin2 recruitment was undetectable	
Cc1cc(Oc2ccccn2)ccc1-c1c(C)ncc2nccn12 [Compound 33, 6-Methyl-5-(2-methyl-4-(pyridin-2-yloxy)phenyl)imidazo[1,2-a]-pyrazine]	very weak activity in the β-arrestin2 recruitment assay	
Cc1cc(Oc2nccc3ccccc23)ccc1-c1c(C)ncc2nccn12 [Compound 28, 1-(3-Methyl-4-(6-methylimidazo[1,2-a]pyrazin-5-yl)phenoxy)-isoquinoline]	inactive for β-arrestin2 recruitment	
Cc1cc(Oc2nccc3occc23)ccc1-c1nc(N)cnc1C [Compound 7, 6-(4-(Furo[3,2-c]pyridin-4-yloxy)-2-methylphenyl)-5-methylpyrazin-2-amine]	minimal β-arr2 recruitment	
COC(=O)c1cccn2c(-c3ccc(Oc4nccc5occc45)cc3C)cnc12 [Compound 6, Methyl-3-(4-(furo[3,2-c]pyridin-4-yloxy)-2-methylphenyl)-imidazo[1,2-a]pyridine-8-carboxylate]	no detectable β-arrestin2 recruitment activity	
FC(F)(F)c1cc(Oc2nccn3cccc23)ccc1-c1cccc2nccn12 [Compound 47, 5-(4-(Pyrrolo[1,2-a]pyrazin-1-yloxy)-2-(trifluoromethyl)phenyl)-imidazo[1,2-a]pyridine]	completely abrogated	
Cc1cc(Oc2nccc3occc23)ccc1-c1cncc(C(N)=O)c1 [Compound 12, 5-(4-(Furo[3,2-c]pyridin-4-yloxy)-2-methylphenyl)nicotinamide]	inactive in the β-arrestin2 recruitment assay	
Cc1ncc2nccn2c1-c1cc(F)c(Oc2nccc3occc23)c(F)c1 [Compound 19, 4-(2,6-Difluoro-4-(6-methylimidazo[1,2-a]pyrazin-5-yl)-phenoxy)furo[3,2-c]pyridine]	eliminated β-arrestin2 recruitment activity	
Cc1cc(Oc2nccc3occc23)ccc1-c1cccc2nccn12 [Compound 5, 4-(4-(Imidazo[1,2-a]pyridin-5-yl)-3-methylphenoxy)furo[3,2-c]-pyridine]		fold reduced potency in the GS-cAMP accumulation assay compared to 1 (human D1 [2]; compared to compound 1): approximately 10 fold
Cc1cc(-c2cccc3nccn23)ccc1Oc1nccc2occc12 [Compound 37, 4-(4-(Imidazo[1,2-a]pyridin-5-yl)-2-methylphenoxy)furo[3,2-c]-pyridine]	eliminated β-arrestin2 recruitment activity	
Cc1ncc2nccn2c1-c1ccc(Oc2nccc3occc23)c(C)c1C [Compound 15, 4-(2,3-Dimethyl-4-(6-methylimidazo[1,2-a]pyrazin-5-yl)-phenoxy)furo[3,2-c]pyridine]	inactive in β-arrestin2 recruitment	
Cc1c(Oc2nccc3occc23)ccc(-c2cccc3nccn23)c1C [Compound 38, 4-(4-(Imidazo[1,2-a]pyridin-5-yl)-2,3-dimethylphenoxy)furo[3,2-c]pyridine]	β-arrestin2 recruitment was eliminated	
CCOc1ncnc(C)c1-c1ccc(Oc2nccc3occc23)cc1C [Compound 8, 4-(4-(4-Ethoxy-6-methylpyrimidin-5-yl)-3-methylphenoxy)furo-[3,2-c]pyridine]	not active in the β-arrestin2 recruitment assay	
